{
  "source": "patent US8959984B2",
  "about": "“Proteome-wide quantification of small molecule binding to cellular target proteins” (priority 2007, dated 2015)",
  "test_in_all_cases": "binding to VI16742 beads (HeLa lysate, SILAC MS)",
  "key": {"AGL (IPI00328318)": {"target": "T1, AGL (IPI00328318) (Homo sapiens, UniProt P35573)", "T1 construct": "endogenous in cells; host or cells: HeLa S3", "T1 sequence (P35573 whole entry)": "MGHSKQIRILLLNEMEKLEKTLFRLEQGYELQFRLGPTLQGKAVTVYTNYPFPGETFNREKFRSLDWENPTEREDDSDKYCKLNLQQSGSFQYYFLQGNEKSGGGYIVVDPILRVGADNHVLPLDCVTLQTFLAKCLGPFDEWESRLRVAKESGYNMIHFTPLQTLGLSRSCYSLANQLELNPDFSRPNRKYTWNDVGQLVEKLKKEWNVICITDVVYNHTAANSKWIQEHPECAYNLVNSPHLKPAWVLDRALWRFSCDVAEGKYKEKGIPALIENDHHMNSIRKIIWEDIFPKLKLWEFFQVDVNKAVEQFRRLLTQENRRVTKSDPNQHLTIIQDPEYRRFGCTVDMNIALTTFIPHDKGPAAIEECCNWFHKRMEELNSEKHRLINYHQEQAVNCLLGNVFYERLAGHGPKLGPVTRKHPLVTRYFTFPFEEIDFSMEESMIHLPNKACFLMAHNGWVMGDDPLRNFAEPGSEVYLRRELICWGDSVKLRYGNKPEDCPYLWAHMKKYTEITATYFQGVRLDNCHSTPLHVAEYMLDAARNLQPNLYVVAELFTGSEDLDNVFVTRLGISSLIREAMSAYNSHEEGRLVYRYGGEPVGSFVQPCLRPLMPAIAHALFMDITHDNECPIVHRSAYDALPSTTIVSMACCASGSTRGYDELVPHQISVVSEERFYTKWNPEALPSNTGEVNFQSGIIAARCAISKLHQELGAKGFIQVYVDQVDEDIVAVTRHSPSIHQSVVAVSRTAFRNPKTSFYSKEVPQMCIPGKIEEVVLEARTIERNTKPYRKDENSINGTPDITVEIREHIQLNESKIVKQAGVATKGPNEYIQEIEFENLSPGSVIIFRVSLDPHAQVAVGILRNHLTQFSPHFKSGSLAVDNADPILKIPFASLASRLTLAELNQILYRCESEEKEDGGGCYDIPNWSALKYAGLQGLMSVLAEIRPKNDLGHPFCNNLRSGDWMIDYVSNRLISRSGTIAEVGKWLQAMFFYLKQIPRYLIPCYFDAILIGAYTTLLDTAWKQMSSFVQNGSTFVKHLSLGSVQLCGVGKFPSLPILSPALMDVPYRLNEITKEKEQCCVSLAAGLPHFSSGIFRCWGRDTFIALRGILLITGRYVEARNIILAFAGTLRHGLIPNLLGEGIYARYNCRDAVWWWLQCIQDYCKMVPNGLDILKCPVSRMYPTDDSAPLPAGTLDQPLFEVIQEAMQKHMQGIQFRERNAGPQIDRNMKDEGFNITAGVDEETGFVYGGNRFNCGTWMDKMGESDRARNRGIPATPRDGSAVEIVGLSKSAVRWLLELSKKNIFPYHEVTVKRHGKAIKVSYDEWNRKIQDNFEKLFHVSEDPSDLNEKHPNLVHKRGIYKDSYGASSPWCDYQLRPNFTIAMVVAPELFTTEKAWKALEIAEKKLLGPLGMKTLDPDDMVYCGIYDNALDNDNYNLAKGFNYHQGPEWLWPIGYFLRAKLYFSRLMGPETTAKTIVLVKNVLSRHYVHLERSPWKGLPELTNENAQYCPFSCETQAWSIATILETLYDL", "excerpt": "(§1) In an alternative implementation of the chemical proteomic approach according to the invention, the broadly-selective pyrido[2,3-d]pyrimidine-based kinase inhibitor VI16742 has been used for affinity capture (FIG. 10a). […] As shown by gene ontology analysis, the corresponding molecular functions were highly over-represented in proteins specifically retained by the inhibitor resin (FIG. 10b)."}, "[1]": {"target": "T2, PKACa (PRKACA, IPI00396630) (Homo sapiens, UniProt P17612)", "T2 construct": "endogenous in cells; host or cells: HeLa S3", "excerpt": "as §1"}, "GLO1 (IPI00220766)": {"target": "T3, GLO1 (IPI00220766) (Homo sapiens, UniProt Q04760)", "T3 construct": "endogenous in cells; host or cells: HeLa S3", "T3 sequence (Q04760 2-184 limits assumed)": "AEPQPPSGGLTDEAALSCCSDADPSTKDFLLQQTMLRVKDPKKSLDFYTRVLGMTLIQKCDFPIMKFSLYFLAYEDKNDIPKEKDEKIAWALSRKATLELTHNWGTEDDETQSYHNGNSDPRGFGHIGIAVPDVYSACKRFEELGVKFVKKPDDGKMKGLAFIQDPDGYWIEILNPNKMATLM", "excerpt": "as §1"}, "FN3KRP (IPI00099986)": {"target": "T4, FN3KRP (IPI00099986) (Homo sapiens, UniProt Q9HA64)", "T4 construct": "endogenous in cells; host or cells: HeLa S3", "T4 sequence (Q9HA64 1-309)": "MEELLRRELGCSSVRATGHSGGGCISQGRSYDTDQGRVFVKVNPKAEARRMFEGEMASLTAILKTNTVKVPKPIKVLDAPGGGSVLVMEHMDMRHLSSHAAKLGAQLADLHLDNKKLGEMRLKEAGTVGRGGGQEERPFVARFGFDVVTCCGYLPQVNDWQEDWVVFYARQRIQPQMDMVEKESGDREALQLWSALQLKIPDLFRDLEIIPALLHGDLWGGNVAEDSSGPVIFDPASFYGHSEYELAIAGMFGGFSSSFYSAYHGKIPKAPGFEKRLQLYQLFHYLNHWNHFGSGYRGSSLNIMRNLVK", "excerpt": "as §1"}, "[2]": {"target": "T5, TAO1 (TAOK1, IPI00002232) (Homo sapiens, UniProt Q7L7X3)", "T5 construct": "endogenous in cells; host or cells: HeLa S3", "T5 sequence (Q7L7X3 1-1001)": "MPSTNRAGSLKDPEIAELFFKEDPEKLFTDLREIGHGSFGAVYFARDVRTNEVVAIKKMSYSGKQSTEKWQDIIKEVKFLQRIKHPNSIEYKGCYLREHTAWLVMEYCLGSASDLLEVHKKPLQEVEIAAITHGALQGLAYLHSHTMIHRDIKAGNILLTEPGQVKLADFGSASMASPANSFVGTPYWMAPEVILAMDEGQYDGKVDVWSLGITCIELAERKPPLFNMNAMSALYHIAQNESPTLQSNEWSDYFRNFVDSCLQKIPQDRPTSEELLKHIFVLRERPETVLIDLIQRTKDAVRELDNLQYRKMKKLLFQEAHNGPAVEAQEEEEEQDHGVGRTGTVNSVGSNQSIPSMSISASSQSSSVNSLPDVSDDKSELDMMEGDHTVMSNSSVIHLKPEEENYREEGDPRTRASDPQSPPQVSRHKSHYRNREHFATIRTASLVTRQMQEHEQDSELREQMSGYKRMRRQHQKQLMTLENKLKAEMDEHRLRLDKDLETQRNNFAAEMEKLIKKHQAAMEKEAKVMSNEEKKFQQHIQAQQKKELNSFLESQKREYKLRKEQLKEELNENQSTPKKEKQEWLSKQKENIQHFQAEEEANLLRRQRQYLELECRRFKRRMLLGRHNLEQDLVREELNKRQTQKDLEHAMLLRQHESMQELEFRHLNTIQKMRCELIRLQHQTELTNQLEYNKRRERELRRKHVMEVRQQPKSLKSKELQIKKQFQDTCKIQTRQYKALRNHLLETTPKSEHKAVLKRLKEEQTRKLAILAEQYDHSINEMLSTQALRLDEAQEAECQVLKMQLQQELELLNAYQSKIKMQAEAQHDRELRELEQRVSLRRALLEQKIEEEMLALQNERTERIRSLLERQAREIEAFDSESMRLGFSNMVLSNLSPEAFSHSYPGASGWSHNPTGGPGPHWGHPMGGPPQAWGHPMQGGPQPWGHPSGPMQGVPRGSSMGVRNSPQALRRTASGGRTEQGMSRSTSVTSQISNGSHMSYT", "excerpt": "as §1"}, "SLK (IPI00022827)": {"target": "T6, SLK (IPI00022827) (Homo sapiens, UniProt Q9H2G2)", "T6 construct": "endogenous in cells; host or cells: HeLa S3", "T6 sequence (Q9H2G2 whole entry)": "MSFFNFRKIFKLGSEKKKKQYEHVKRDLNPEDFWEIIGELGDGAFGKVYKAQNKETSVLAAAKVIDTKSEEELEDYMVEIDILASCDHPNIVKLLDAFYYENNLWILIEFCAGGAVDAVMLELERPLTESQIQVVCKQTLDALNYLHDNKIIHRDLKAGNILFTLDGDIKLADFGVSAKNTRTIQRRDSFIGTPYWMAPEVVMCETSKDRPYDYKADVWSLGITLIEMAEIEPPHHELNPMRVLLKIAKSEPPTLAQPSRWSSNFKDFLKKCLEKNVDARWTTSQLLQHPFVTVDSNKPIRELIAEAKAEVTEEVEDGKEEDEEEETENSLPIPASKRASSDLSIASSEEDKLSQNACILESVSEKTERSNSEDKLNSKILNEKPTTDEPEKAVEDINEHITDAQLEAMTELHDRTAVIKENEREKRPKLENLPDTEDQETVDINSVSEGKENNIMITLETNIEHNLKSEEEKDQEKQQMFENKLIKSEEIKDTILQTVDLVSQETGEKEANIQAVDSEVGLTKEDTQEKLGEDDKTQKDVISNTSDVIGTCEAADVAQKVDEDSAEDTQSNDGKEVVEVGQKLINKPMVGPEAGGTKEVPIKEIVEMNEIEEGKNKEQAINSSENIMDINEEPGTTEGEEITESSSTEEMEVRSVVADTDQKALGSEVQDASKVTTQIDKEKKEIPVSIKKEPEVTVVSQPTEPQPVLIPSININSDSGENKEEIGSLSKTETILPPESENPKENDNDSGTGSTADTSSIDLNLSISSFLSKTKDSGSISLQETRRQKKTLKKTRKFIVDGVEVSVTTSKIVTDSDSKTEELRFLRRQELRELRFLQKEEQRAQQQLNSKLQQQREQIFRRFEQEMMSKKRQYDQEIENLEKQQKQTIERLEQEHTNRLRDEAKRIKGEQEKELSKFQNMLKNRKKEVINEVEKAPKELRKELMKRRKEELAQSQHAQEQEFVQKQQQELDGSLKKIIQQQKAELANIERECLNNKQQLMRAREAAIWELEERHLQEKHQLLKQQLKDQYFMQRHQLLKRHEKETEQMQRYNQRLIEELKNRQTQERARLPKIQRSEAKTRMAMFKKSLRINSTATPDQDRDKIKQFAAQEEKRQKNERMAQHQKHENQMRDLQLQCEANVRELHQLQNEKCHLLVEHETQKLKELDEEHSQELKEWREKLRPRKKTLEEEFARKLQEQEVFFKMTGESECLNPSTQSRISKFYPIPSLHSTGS", "excerpt": "as §1"}, "[3]": {"conditions": "control beads vs first incubation"}},
  "data": [
    {"compound": "CC(C)n1c(=O)ccc2cnc(Nc3ccc(OCCN)cc3)nc21", "note": "[V16742]", "values": [
      {"measurement": "rAVERAGE (CTRL/1 INC)", "setting": "AGL (IPI00328318); [3]", "value": 0.08},
      {"measurement": "Ki", "setting": "AGL (IPI00328318); immobilized VI16742", "value": 218, "unit": "µM"},
      {"measurement": "rAVERAGE (2 INC/1 INC)", "setting": "AGL (IPI00328318); second vs first incubation", "value": 0.81},
      {"measurement": "r (3 MG/1 MG LYSATE)", "setting": "[1]; 3 mg vs 1 mg lysate", "value": 2.18},
      {"measurement": "r (5 h/2.5 h INC. TIME)", "setting": "[1]; 5 h vs 2.5 h incubation time", "value": 1.76},
      {"measurement": "rAVERAGE (CTRL/1 INC)", "setting": "[1]; [3]", "value": 0.04},
      {"measurement": "Ki", "setting": "[1]; immobilized VI16742", "value": 305, "unit": "µM"},
      {"measurement": "rAVERAGE (2 INC/1 INC)", "setting": "[1]; second vs first incubation", "value": 0.85},
      {"measurement": "r (5 h/2.5 h INC. TIME)", "setting": "GLO1 (IPI00220766); 5 h vs 2.5 h incubation time", "value": 1.39},
      {"measurement": "rAVERAGE (CTRL/1 INC)", "setting": "GLO1 (IPI00220766); [3]", "value": 0.07},
      {"measurement": "Ki", "setting": "GLO1 (IPI00220766); immobilized VI16742", "value": 133, "unit": "µM"},
      {"measurement": "rAVERAGE (2 INC/1 INC)", "setting": "GLO1 (IPI00220766); second vs first incubation", "value": 0.72},
      {"measurement": "r (3 MG/1 MG LYSATE)", "setting": "FN3KRP (IPI00099986); 3 mg vs 1 mg lysate", "value": 2.02},
      {"measurement": "r (5 h/2.5 h INC. TIME)", "setting": "FN3KRP (IPI00099986); 5 h vs 2.5 h incubation time", "value": 0.95},
      {"measurement": "rAVERAGE (CTRL/1 INC)", "setting": "FN3KRP (IPI00099986); [3]", "value": 0.07},
      {"measurement": "Ki", "setting": "FN3KRP (IPI00099986); immobilized VI16742", "value": 117, "unit": "µM"},
      {"measurement": "rAVERAGE (2 INC/1 INC)", "setting": "FN3KRP (IPI00099986); second vs first incubation", "value": 0.69},
      {"measurement": "r (3 MG/1 MG LYSATE)", "setting": "[2]; 3 mg vs 1 mg lysate", "value": 2.64},
      {"measurement": "r (5 h/2.5 h INC. TIME)", "setting": "[2]; 5 h vs 2.5 h incubation time", "value": 1.02},
      {"measurement": "rAVERAGE (CTRL/1 INC)", "setting": "[2]; [3]", "value": 0.06},
      {"measurement": "Ki", "setting": "[2]; immobilized VI16742", "value": 162, "unit": "µM"},
      {"measurement": "rAVERAGE (2 INC/1 INC)", "setting": "[2]; second vs first incubation", "value": 0.76},
      {"measurement": "r (3 MG/1 MG LYSATE)", "setting": "SLK (IPI00022827); 3 mg vs 1 mg lysate", "value": 3.22},
      {"measurement": "r (5 h/2.5 h INC. TIME)", "setting": "SLK (IPI00022827); 5 h vs 2.5 h incubation time", "value": 1.87},
      {"measurement": "rAVERAGE (CTRL/1 INC)", "setting": "SLK (IPI00022827); [3]", "value": 0.05},
      {"measurement": "Ki", "setting": "SLK (IPI00022827); immobilized VI16742", "value": 217, "unit": "µM"},
      {"measurement": "rAVERAGE (2 INC/1 INC)", "setting": "SLK (IPI00022827); second vs first incubation", "value": 0.81}
    ]}
  ]
}
